Results published in US10085955B2, “Methods and compositions for treatment of demyelinating diseases” (Pathologica LLC, priority 2013, dated 2018).
Read-outs that look alike come from different tables or passages of the source.

Tests used:
[1] = design: species or system DBA/1 mice; conditions: male, DBA/1, mouse, in vivo
Procedure: Twenty-four male DBA/1 mice weighing 19.5-24.7 g and aged 7-9 weeks administered the test article, MGBG, as either a single bolus intravenous dose via a lateral tail vein of 1 mg/kg (Group 1, n=12) or as a single oral gavage dose of 10 mg/kg (Group 2, n=12). Each dose group consisted of 4 cohorts of 3 animals each. Group 1 was sampled at 5, 15, and 30 minutes after dosing; and 1, 2, 4, 8, and 24 hours after dosing. Group 2 was sampled at 1, 2, 4, 8, 12, 24, and 36 hours after dosing. Starting with the first time point, a new cohort was sampled at each successive time point up to the 1-hour (Group 1) or […] (Group 2) time point. The order of sampling among the cohorts was repeated for the subsequent time points (some cohorts may have been bled only once). The second bleed for each cohort was terminal. Animals were sacrificed via CO2 inhalation anesthesia after final blood collection.
The samples were centrifuged under refrigerated conditions following completion of sample collection at each interval. The resulting plasma was separated and stored frozen at approximately −70° C. until analysis. Analysis was performed by LC/MS/MS. Pharmacokinetic analyses were performed on the mean MGBG plasma concentration versus time data using the non-compartmental approach (linear trapezoidal rule for AUC calculations). The WinNonlin sparse sampling tool was used for PK calculations.
The second method used to convert the efficacious 60 mg/kg/day dose in mice to an equivalent dose in humans was based more directly on allometric scaling. Data from an MGBG pharmacokinetic study consisting of a 10 mg/kg oral dose in mice was modeled in a simulation to determine the theoretical AUCINF value for a dosing regimen of 30 mg/kg PO BID, which was 9050 h*ng/mL. Next, predicted human clearance values as determined by single- and multi-species allometric scaling were used to estimate doses likely to produce an exposure in humans (AUCINF) similar to that of the 60 mg/kg/day in mice. […] Using multi-species allometric scaling, the predicted human equivalent dose is about 4.2 mg/kg/day.

[2] = tested on: MOG-induced experimental autoimmune encephalomyelitis (EAE); assay: First MOG EAE protocol (murine multiple sclerosis model); assay type: in vivo, C57BL/6 mice
Description: An experimental murine model of multiple sclerosis employing a myelin oligodendrocyte glycoprotein (MOG) peptide to induce experimental autoimmune encephalomyelitis (EAE) was employed to determine the efficacy of MGBG in preventing and treating that disease. Because of its many similarities to MS, EAE is commonly used to study pathogenesis of autoimmunity, CNS inflammation, demyelination, cell trafficking, and tolerance induction. EAE is characterized by paralysis (in some models the paralysis is remitting-relapsing), CNS inflammation and demyelination. EAE is mediated primarily by dendritic cells, myelin-specific T cells (e.g. Th1 and Th17), and M1 macrophages. B cells may also play a role in some models of EAE. Body weight also tracks disease progression. EAE is induced in C57BL/6 mice by immunization with MOG35-55 or MOG1-125 in CFA emulsion followed by administration of pertussis toxin (PTX) in PBS. The emulsion provides antigen which initiates expansion and differentiation of MOG-specific autoimmune T cells. PTX enhances EAE development by providing additional adjuvant and facilitating entrance of autoimmune T cells into the CNS.
Chronic EAE develops in C57BL/6 mice after immunization with an emulsion of MOG35-55/CFA or MOG1-125/CFA followed by injection of pertussis toxin. This model is used to test the potential of compounds to prevent or mitigate EAE disease. It can be run with the compound dosed from the time of immunization (prophylactic treatment), or with the aim of reversing the course of disease and facilitating recovery by dosing the compound from the time of EAE onset (therapeutic treatment). The model uses female C57BL/6 mice of age 10 to 14 weeks at the start of the study. Typically, EAE develops 8-18 days after immunization. EAE development is usually followed for 4 weeks (28 days) after immunization.
In prophylactic studies, treatment begins before disease onset, at the time of immunization and group assignment. Mice are assigned to treatment groups in a balanced manner to achieve groups with similar distributions of body weights. Prophylactic studies assess if treatment will affect the course of disease both before and after the first clinical signs of EAE. To compensate for the stress of treatment in prophylactic treatment studies and achieve the target disease severity, EAE may be induced with a higher dose of pertussis toxin than used in therapeutic studies. The dose of pertussis toxin is based on expected stress due to dosing (route, frequency, and formulation of vehicle).
Clinically, EAE progression is scored on a scale of 0 to 5, wherein each score represents the following clinical observations:
Inflammatory foci of approximately 20 cells were counted in each H&E stained section. When inflammatory infiltrates consisted of more than 20 cells, an estimate was made of how many foci of 20 cells were present.
The demyelination score represents an estimate of demyelinated area for each section as follows:
Unless otherwise noted, statistical analysis was performed as follows: disease incidence compared using chi-square test; mean day of EAE onset, change in body weight, and number of apoptotic cells compared using 2-tailed Student's t-test; median day of EAE onset compared using Wilcoxon's survival test; mean maximum score (MMS), end score, and demyelination scores (LFB and H&E) compared using Wilcoxon's non-parametric test.
Ten week old female C57BL/6 mice weighing 18-23 g (Taconic Farms) were divided into four groups: mock immunized (n=3) and three MOG-immunized groups receiving MGBG at 30 mpk BID (as the di-HCl monohydrate with a correction factor of 1.49), fingolimod (FTY720) at 3 mpk QD with a second mock vehicle dose, or 0.9% saline vehicle BID (n=12 each). […]

CC(/C=N/NC(=N)N)=N\NC(=N)N [MGBG, 1,1′ [methylethanediylidene]dinitrilodiguanidine]
Clobs ([1]; iv, 1 mg/kg): 49.6 mL/min/kg
VSSobs ([1]; iv, 1 mg/kg): 38.3 L/kg
Clobs ([1]; po, 10 mg/kg): 6.68 mL/min/kg
Vd ([1]; po, 10 mg/kg): 38.3 L/kg
mean clinical score (scale 0 to 5) ([2]; first 28-day study, MGBG 30 mpk BID, fingolimod 3 mpk QD, throughout/duration of experiment): below 1
body weight, mean percent of baseline (study start) ([2]; first study, day 11): ~115%
body weight, mean percent of baseline (study start) ([2]; first study, day 24): about 108%
spinal cord histopathology (neuroinflammation, demyelination, apoptosis) ([2]; first study, day 28): reduces histopathological signs of MS
day first clinical signs became evident ([2]; first study, MGBG 30 mpk BID (vehicle day 10)): 15 days
